From US9987200B2, “Activated micro-bubble based root canal disinfection” (SyACT, LLP, priority 2014, dated 2018)
One block for each compound: values may come before it.

What was measured:
[1] = Singlet oxygen release measured with 1,3-diphenylisobenzofuran (DPBF); assay type: physicochemical; settings: with sonic activation compared with no sonic activation (FIG. 11)
Description: As noted above, when the light reaches the photosensitive compound, the photosensitive compound releases energy to convert the oxygen molecules to singlet oxygen. […] The singlet oxygen release was measured using 1, 3-diphenylisobenzofuran (DPBF). DPBF is a chemical used to study the degree of release of singlet oxygen; it is not actually part of the micro-bubble solution or the photosensitizing solution. As is known, DPBF undergoes bleaching with singlet oxygen and this can be calorimetrically quantified. […]
FIG. 11 contains graphs showing singlet oxygen yield of methylene blue (on the left hand graph) and rose bengal (on the right hand graph) both with sonic activation (square data points) and without sonic activation (diamond data points). […] The substantial fall off in absorbance in the sonically activated samples (as compared to the non-activated samples) for both the methylene blue and the rose bengal show substantial increase in micro-bubble activity within the first few seconds of activation of the micro-bubble solution.

[2] = cited from earlier work
bacterial biofilms = assay: Laser confocal microscopy of treated root canals, live/dead bacteria (FIGS. 20-22); assay type: cell-based; settings: then sonic and light activation of the micro-bubble solution
Description: FIGS. 21-22 show laser confocal microscopy images showing bacterial biofilms (and dead cells as red and viable cells are green).
In these photographs, active bacteria are shown in green and dead bacteria as shown in red. FIG. 20 contains photomicrographs of a control tooth.

[3] = tested on: Enterococcus faecalis biofilms; assay: Confocal laser scanning microscopy of biofilms subjected to different treatments (FIG. 15); assay type: cell-based; settings: one week old E. faecalis biofilms; live green, dead red; light 660 nm
Description: FIG. 15 contains in the first two columns, images showing the three-dimensional confocal laser scanning microscopy reconstruction of the Enterococcus faecalis biofilms subjected to different treatments (60×).
The first two columns of FIG. 15 contain images which show one week old bacterial biofilms of Enterococcus faecalis before and after treatment for the different groups. Each of the six images in the first two columns show active and dead bacteria, with the active bacteria being shown in green and the dead bacteria being shown in red. The two left-hand columns of FIG. 15 contains, images showing the three-dimensional confocal laser scanning microscopy reconstruction of the Enterococcus faecalis biofilms subjected to different treatments (60×). […] However, there active bacteria remain.

Fall off in absorbance (singlet oxygen yield) [1]: fell off much more quickly
Compound: O=C([O-])c1c(Cl)c(Cl)c(Cl)c(Cl)c1-c1c2cc(I)c(=O)c(I)c-2oc2c(I)c([O-])c(I)cc12.[Na+].[Na+] [rose bengal]

Compound: Triton X-100
Solubility ([2]; at 25° C. in water, benzene, toluene, xylene, trichloroethylene, ethylene glycol, ethyl ether, ethanol, isopropanol, ethylene dichloride): soluble in all proportions
Viscosity (Brookfield) ([2]; at 25° C.): 240 cps

Fall off in absorbance (singlet oxygen yield) [1]: falls off much more rapidly
Compound: CN(C)c1ccc2nc3ccc(=[N+](C)C)cc-3sc2c1 [methylene blue]
Active bacteria remaining in root canal (bacterial biofilms; MB in a water carrier): substantially all of the active bacteria have been eliminated
Active bacteria remaining in root canal (bacterial biofilms; MB in polyethylene glycol, alcohol and water carrier solution): substantially all of the active bacteria have been eliminated

Compound: OCl [sodium hypochlorite]
Active (live) bacteria remaining in biofilm [3]: kills (eliminates) nearly all of the active bacteria
